Test results reported in ChEMBL document CHEMBL5150046, “Discovery of a Series of 5-Amide-1H-pyrazole-3-carboxyl Derivatives as Potent P2Y14R Antagonists with Anti-Inflammatory Characters” (J Med Chem, 2022).
In brackets after ≈: the same amount, converted by molar mass.

How the values were obtained:
[1] = biological target: T1, P2Y purinoceptor 14 (Homo sapiens) (UniProt Q15391)
T1 sequence (whole entry): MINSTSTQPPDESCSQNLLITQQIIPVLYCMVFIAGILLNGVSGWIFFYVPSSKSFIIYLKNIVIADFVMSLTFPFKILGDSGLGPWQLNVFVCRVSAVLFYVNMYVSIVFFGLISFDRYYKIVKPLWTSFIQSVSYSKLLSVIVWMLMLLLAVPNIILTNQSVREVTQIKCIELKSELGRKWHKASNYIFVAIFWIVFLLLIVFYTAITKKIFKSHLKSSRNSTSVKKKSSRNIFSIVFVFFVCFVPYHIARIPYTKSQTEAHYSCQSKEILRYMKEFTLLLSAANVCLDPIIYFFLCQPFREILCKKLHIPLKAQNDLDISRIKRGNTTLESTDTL

P2Y purinoceptor 14 = biological target: T2, P2Y purinoceptor 14 (Homo sapiens, UniProt Q15391); assay: Antagonist activity at P2Y14R (unknown origin) expressed in HEK293 cells assessed as inhibition of forskolin-stimulated cAMP accumulation incubated in presence of IBMX by cAMP-glo assay; assay type: functional, cell-based
T2 sequence (Q15391 whole entry): T1 sequence (whole entry)

P2Y purinoceptor 4 = P2Y purinoceptor 4 (Homo sapiens, UniProt P51582)
Chain of P2Y purinoceptor 4 (P51582 whole entry): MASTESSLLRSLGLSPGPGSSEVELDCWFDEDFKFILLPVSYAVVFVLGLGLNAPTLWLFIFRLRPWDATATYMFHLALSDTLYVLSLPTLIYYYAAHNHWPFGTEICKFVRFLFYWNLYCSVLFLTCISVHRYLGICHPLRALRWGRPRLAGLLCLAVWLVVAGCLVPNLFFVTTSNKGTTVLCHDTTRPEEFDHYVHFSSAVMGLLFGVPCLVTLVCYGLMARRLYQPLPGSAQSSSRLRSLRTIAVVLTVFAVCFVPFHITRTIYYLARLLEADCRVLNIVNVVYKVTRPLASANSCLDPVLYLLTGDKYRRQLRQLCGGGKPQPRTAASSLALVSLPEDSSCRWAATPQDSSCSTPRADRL

[2] = Clearance in Sprague-Dawley rat at 10 mg/kg, po measured for 24 hrs; assay type: ADME, organism-based; conditions: in vivo
[3] = Aqueous solubility of the compound in double distilled water at pH 7 incubated for 24 hrs by UV-3000 absorption spectrometry analysis; assay type: physicochemical; conditions: buffer, pH 7, 24 h
[4] = Half life in Sprague-Dawley rat at 2.5 mg/kg, iv measured for 24 hrs; assay type: ADME, organism-based; conditions: in vivo
[5] = AUC (0 to infinity) in Sprague-Dawley rat at 10 mg/kg, po measured for 24 hrs; assay type: ADME, organism-based; parameters: dose 10 mg/kg, time 24 hrs, route po; conditions: in vivo
[6] = AUC (0 to infinity) in Sprague-Dawley rat at 2.5 mg/kg, iv measured for 24 hrs; assay type: ADME, organism-based; parameters: time 24 hrs, dose 2.5 mg/kg, route iv; conditions: in vivo
[7] = Metabolic stability in human liver microsomes assessed as elimination rate constant at 2 ug/ml preincubated for 5 mins followed by NADPH addition and measured upto 45 mins by LC-MS/MS analysis; assay type: ADME, Microsome; conditions: dose 2 µg/ml, time < 50 min
[8] = Cmax in Sprague-Dawley rat at 10 mg/kg, po measured for 24 hrs; assay type: ADME, organism-based; parameters: time 24 hrs, dose 10 mg/kg, route po; conditions: in vivo
[9] = Aqueous solubility of the compound in PBS at pH 7.4 incubated for 24 hrs by UV-3000 absorption spectrometry analysis; assay type: physicochemical; conditions: buffer, pH 7.4, 24 h
[10] = Half life in Sprague-Dawley rat at 10 mg/kg, po measured for 24 hrs; assay type: ADME, organism-based; conditions: in vivo
[11] = Metabolic stability in human liver microsomes assessed as half life at 2 ug/ml preincubated for 5 mins followed by NADPH addition and measured upto 45 mins by LC-MS/MS analysis; assay type: ADME, Microsome; conditions: dose 2 µg/ml, time < 50 min
[12] = Clearance in Sprague-Dawley rat at 2.5 mg/kg, iv measured for 24 hrs; assay type: ADME, organism-based; conditions: in vivo
[13] = Aqueous solubility of the compound in simulated gastric fluid without pepsin at pH 1.2 incubated for 24 hrs by UV-3000 absorption spectrometry analysis; assay type: physicochemical; conditions: simulated gi fluid, pH 1.2, 24 h
[14] = Aqueous solubility of the compound in simulated intestinal fluid without trypsin at pH 6.8 incubated for 24 hrs by UV-3000 absorption spectrometry analysis; assay type: physicochemical; conditions: simulated gi fluid, pH 6.8, 24 h
[15] = Metabolic stability in rat liver microsomes assessed as half life at 2 ug/ml preincubated for 5 mins followed by NADPH addition and measured upto 45 mins by LC-MS/MS analysis; assay type: ADME, Microsome; conditions: dose 2 µg/ml, time < 50 min
[16] = Oral bioavailability in Sprague-Dawley rat at 10 mg/kg measured for 24 hrs; assay type: ADME, organism-based; conditions: in vivo
[17] = Metabolic stability in rat liver microsomes assessed as elimination rate constant at 2 ug/ml preincubated for 5 mins followed by NADPH addition and measured upto 45 mins by LC-MS/MS analysis; assay type: ADME, Microsome; conditions: dose 2 µg/ml, time < 50 min
[18] = Tmax in Sprague-Dawley rat at 10 mg/kg, po measured for 24 hrs; assay type: ADME, organism-based; conditions: in vivo
[19] = HEK293, filed as antagonist, dose 100.0 nM

| inhibition [1, 19] | inhibition ([1]; HEK293, dose 100.0 nM) | IC50 (P2Y purinoceptor 14) | SMILES | also measured |
| --- | --- | --- | --- | --- |
| 76% |  |  | O=C(O)c1cc(NC(=O)c2ccco2)n(Cc2ccc(F)cc2)n1 |  |
|  | 25.2% |  | O=C(Nc1cc(C(=O)O)nn1Cc1ccc(F)cc1)c1cccc(F)c1 |  |
| 98.3% |  | 14.3 nM | Cc1ccc(C(=O)Nc2cc(CC(=O)O)nn2Cc2ccc(F)cc2)cc1 |  |
|  | 20.1% |  | O=C(O)c1cc(NC(=O)c2ccccc2F)n(Cc2ccc(F)cc2)n1 |  |
|  | 27.4% |  | O=C(Nc1cc(C(=O)O)nn1Cc1ccc(F)cc1)c1cccnc1 |  |
| 98.2% |  | 3.81 nM | CC(=O)c1ccc(C(=O)Nc2cc(C(=O)O)nn2Cc2ccc(F)cc2)cc1 |  |
| 89% |  | 5.39 nM | Cc1ccc(C(=O)Nc2cc(C(=O)O)nn2Cc2cccc(F)c2)cc1 |  |
|  |  |  | O=C(C1CC1)N1CCc2cc(Br)c(S(=O)(=O)Nc3ccc(Cl)c(C(F)(F)F)c3)cc21 | IC50 (P2Y purinoceptor 4): 13600 nM |
|  | 32.5% |  | O=C(Nc1cc(C(=O)O)nn1Cc1ccc(F)cc1)c1ccncc1 |  |
| 43.6% |  |  | Cc1ccc(C(=O)Nc2cc(C(=O)O)nn2Cc2ccc(F)cc2)o1 |  |
| 77.4% |  |  | O=C(Nc1cc(C(=O)O)nn1Cc1ccc(F)cc1)c1ccccc1 |  |
| 90.3% |  | 4.01 nM | Cc1ccc(C(=O)Nc2cc(C(=O)O)nn2Cc2cc(F)c(F)c(F)c2)cc1 |  |
| 97.9% |  | 4.65 nM | CCc1ccc(C(=O)Nc2cc(C(=O)O)nn2Cc2ccc(F)cc2)cc1 |  |
|  | 14.4% |  | Cc1ccc(CCC(=O)Nc2cc(C(=O)O)nn2Cc2ccc(F)cc2)cc1 |  |
|  |  |  | Cc1ccc(C(=O)Nc2cc(C(=O)O)nn2Cc2ccc(F)cc2)cc1 | CL/F [2]: 32.5 mL/min/kg; solubility [3]: 88.5 µg/mL (≈ 250 µM); half-life [4]: 1.82 h; AUC(0-inf) [5]: 4500 ng·h/mL; AUC(0-inf) [6]: 2600 ng·h/mL; k el at 0.75 h, 2 ug/ml [7]: 8.33e-06 s⁻¹; Cmax [8]: 1100 ng/mL; solubility [9]: 318.7 µg/mL (≈ 902 µM); half-life [10]: 4.57 h; half-life at 2 ug/ml [11]: 21 h; clearance [12]: 16.3 mL/min/kg; solubility [13]: 85.1 µg/mL (≈ 241 µM); solubility [14]: 202.7 µg/mL (≈ 574 µM); half-life at 2 ug/ml [15]: 2.88 h; bioavailability [16]: 43.2%; k el at 0.75 h, 2 ug/ml [17]: 6.67e-05 s⁻¹; Tmax [18]: 0.25 h |
| 93% |  | 4.83 nM | Cc1ccc(C(=O)Nc2cc(C(=O)O)nn2Cc2ccccc2C(F)(F)F)cc1 |  |
